{"source": "patent US20150360047A1", "about": "“Cosmetic Biophotonic Compositions” (KLOX TECHNOLOGIES INC., priority 2012, published 2015)", "test": "Absorption/emission spectra and photobleaching of chromophores and chromophore combinations", "format": "physicochemical", "method": "The photodynamic properties of (i) Fluorescein sodium salt at about 0.09 mg/mL, (ii) Eosin Y at about 0.305 mg/mL, and (iii) a mixture of Fluorescein sodium salt at about 0.09 mg/mL and Eosin Y at about 0.305 mg/mL, all in a gel (12% carbamide) were evaluated. A flexstation 384 II spectrophotometer was used to measure emitted fluorescence with the following parameters: mode fluorescence, excitation 460 nm, emission spectra 465-750 nm. The absorbance was read using a synergy HT microplate reader: mode absorbance; spectra between 300-650 nm. The absorption and emission spectra are shown in FIGS. 8A and 8B which indicate an energy transfer between the chromophores in the combination. It is to be reasonably inferred that this energy transfer can also occur in biophotonic compositions of the present disclosure. […]\nThe photodynamic properties of (i) Fluorescein sodium salt at 0.18 mg/mL final concentration, (ii) Eosin Y at about 0.305 mg/mL, and (iii) a mixture of Fluorescein sodium salt at about 0.18 mg/mL and Eosin Y at about 0.305 mg/mL in an aqueous solution were evaluated. A flexstation 384 II spectrophotometer was used to measure emitted fluorescence with the following parameters: mode fluorescence, excitation 460 nm, emission spectra 465-750 nm. The absorbance was read using a synergy HT microplate reader: mode absorbance; spectra between 300-650 nm. […]"}
{"smiles": "O=C([O-])c1ccccc1-c1c2cc(Br)c(=O)c(Br)c-2oc2c(Br)c([O-])c(Br)cc12.[Na+].[Na+]", "note": "[Eosin Y]", "values": [{"measurement": "Photobleaching during illumination", "setting": "with Fluorescein in aqueous solution, Example 4", "value": "Photobleaching of Eosin Y was observed"}, {"measurement": "Photobleaching during illumination", "setting": "with Fluorescein in gel (12% carbamide), Example 3", "value": "Photobleaching of Eosin Y was observed"}]}
